Source: PMC3401268 (Bioorganic & medicinal chemistry, 2012)

What was measured:
α-synuclein fibrils [1] = biological target: T1, α-synuclein fibrils (Homo sapiens, UniProt P37840); assay: ThT saturation binding to α-synuclein fibrils; conditions: Tris buffer 30 mM pH 7.4
α-synuclein fibrils [2] = biological target: T1, α-synuclein fibrils

SMILES	Bmax of ThT binding to α-synuclein fibrils (α-synuclein fibrils [1])	Competition for ThT in the assay (specificity control) (α-synuclein fibrils [2])
Cc1ccc2c(c1)sc(-c1ccc(N(C)C)cc1)[n+]2C [ThT, Thioflavin T]	5672 afu	
CCc1cc(Cl)c(OC)c(C(=O)NC[C@@H]2CCCN2CC)c1O.Cl [eticlopride hydrochloride]		no significant competition
